In US20230201134A1, “COMPOSITIONS FOR THE MANAGEMENT OF DEMYELINATING DISORDERS” (priority 2021, published 2023):

Assays:
Assay type in all cases: in vivo, mouse
[1] = test system: CXC chemokine receptor 2 (CXCR2); assay: CXCR2 in brain tissue homogenate (ELISA), cuprizone/rapamycin demyelination model; settings: compared to the demyelination control, Withaferin A 25 mg/kg, BDMC 12.5 mg/kg, combination 37.5 mg/kg, orally once per day
Description: (§1) The Eight-week-old male C56BL/6 J mice were selected and randomized into ten animals in each group (Table 1). Demyelination was induced by 0.3% cuprizone in combination with rapamycin (Hilary H S, Kathryn K B, Daniela C P, Priya N, Wendy B M. A New Model of Cuprizone-Mediated Demyelination/Remyelination. Am Society Neurochem. 2014: 1-16). Briefly, groups undergo demyelination by feeding on a diet containing 0.3% cuprizone mixed into Rodent Diet. These mice received additionally intra-peritoneal rapamycin injections 5 days a week with a vehicle solution.
(§2) After 8 weeks of treatment, all cuprizone feedings and all injections of rapamycin was discontinued. The animals were subjected to behavioral analysis and at end of study, brain samples and serum samples were collected for estimation of Molecular and protein biomarkers by ELISA and Immunohistochemistry of brain was assessed for Demyelination/Remyelination.
(§3) Withaferin A or BDMC were administered orally once per day to mouse, for 8 weeks after treatment with Cuprizone and Rapamycin (Table 1). The dose response of BDMC or Withaferin was assessed by measuring concentration of biomarkers, Myelin Oligodendrocyte Glycoprotein (MOG) (FIG. 1) Brain Derived Neurotrophic Factor (BDNF) (FIG. 2), in serum. […]

[2] = test system: Chondroitin Sulfate Proteoglycan 4 (NG2); assay: NG2 in brain tissue homogenate (ELISA), cuprizone/rapamycin demyelination model; settings: compared to the demyelination control, Withaferin A 25 mg/kg, BDMC 12.5 mg/kg, combination 37.5 mg/kg, orally once per day
Description: as §1, §2, §3

[3] = test system: Myelin Oligodendrocyte Glycoprotein (MOG), Brain Derived Neurotrophic Factor (BDNF); assay: Dose response study, MOG and BDNF in serum; settings: orally once per day for 8 weeks; from serum MOG and BDNF dose response
Description: as §1
Withaferin A or BDMC were administered orally once per day to mouse, for 8 weeks after treatment with Cuprizone and Rapamycin (Table 1). The dose response of BDMC or Withaferin was assessed by measuring concentration of biomarkers, Myelin Oligodendrocyte Glycoprotein (MOG) (FIG. 1) Brain Derived Neurotrophic Factor (BDNF) (FIG. 2), in serum.

C56BL/6 J mice [4] = assay: Locomotor activity test (Actophotometer) in demyelinated mice; settings: 5 minutes, p.o., Mean ± S.E., 10 animals; for locomotor activity score, 3 hr after treatment: demyelinated control 148 ± 14.48; for locomotor activity score, 2 hr after treatment: demyelinated control 158 ± 14.02; for locomotor activity score, 1 hr after treatment: demyelinated control 170 ± 20.18
Description: as §1, §2
Actophotometer (Activity cage) is designed to study the spontaneous or induced or locomotor activity in small animals like mice or rats. In this apparatus, the Optical sensors and emitters are present to record the horizontal movements of the animals on a six-digit digital counter display. Each animal was placed in Actophotometer for 5 minutes and basal activity score was recorded for all animals. Each animal was treated with respective drugs and activity score was recorded after 1, 2, and 3 hours.

[5] = test system: Amphoterin-induced protein 3 (AMIGO3); assay: AMIGO3 in brain tissue homogenate (ELISA), cuprizone/rapamycin demyelination model; settings: compared to the demyelination control, Withaferin A 25 mg/kg, BDMC 12.5 mg/kg, combination 37.5 mg/kg, orally once per day
Description: as §1, §2, §3

C56BL/6 J mice [6] = assay: Grip strength test in demyelinated mice; settings: forelimb strength, compared to the demyelinated control; Withaferin A 25 mg/kg, BDMC 12.5 mg/kg, combination 37.5 mg/kg
Description: as §1, §2

[7] = test system: Myelin basic protein (MBP); assay: Myelin basic protein in brain tissue homogenate (ELISA), cuprizone/rapamycin demyelination model; settings: compared to the demyelination control, Withaferin A 25 mg/kg, BDMC 12.5 mg/kg, combination 37.5 mg/kg, orally once per day
Description: as §1, §2, §3

C56BL/6 J mice [8] = assay: Motor coordination and learning: Rotarod test in demyelinated mice; settings: Rotarod 16 rpm, 60 s, Withaferin A 25 mg/kg, BDMC 12.5 mg/kg, combination 25 + 12.5 mg/kg, demyelinated control 3/10
Description: as §1, §2
Motor coordination and balance were evaluated in a Rotarod apparatus which consists of a motor-driven rotating rod whose speed can be adjusted. All mice were evaluated on the Rotarod three times a day for two consecutive days, with the rotation set at 15 to 16 revolutions per minute (rpm) (Rozas, G.; Guerra, M. J.; Labandeira Garcia, J. L. An automated Rotarod method for quantitative drug-free evaluation of overall motor deficits in rat models of Parkinsonism. Brain Res. Protoc. 1997, 2, 75-84). To test the performance, the mice were placed on the rotating cylinder at an angle of 45 with an initial rotation speed of 16 rpm, and were allowed to run for 60 s. The trial was repeated after 5-10 min. The falls and flips (when the animal hangs on to the cylinder and continues all the way around) were recorded within 60 s of each trial.

C-reactive Protein (CRP) = assay: C-reactive protein (ELISA), cuprizone/rapamycin demyelination model; settings: compared to the demyelination control, Withaferin A 25 mg/kg, BDMC 12.5 mg/kg, combination 37.5 mg/kg, orally once per day
Description: as §1, §2, §3

[9] = test system: Platelet Derived Growth Factor Receptor alpha (PDGFRa); assay: PDGFRa in brain tissue homogenate (ELISA), cuprizone/rapamycin demyelination model; settings: compared to the demyelination control, Withaferin A 25 mg/kg, BDMC 12.5 mg/kg, combination 37.5 mg/kg, orally once per day
Description: as §1, §2, §3

[10] = test system: Transient receptor potential ankyrin 1 (TRPA1); assay: TRPA1 in brain tissue homogenate (ELISA), cuprizone/rapamycin demyelination model; settings: compared to the demyelination control, Withaferin A 25 mg/kg, BDMC 12.5 mg/kg, combination 37.5 mg/kg, orally once per day
Description: as §1, §2, §3

C56BL/6 J mice [11] = assay: Immunohistochemistry of brain for demyelination/remyelination; settings: GST-π staining; Withaferin A 25 mg/kg, BDMC 12.5 mg/kg, combination 37.5 mg/kg; versus demyelinated control
Description: as §1, §2

SMILES | down regulation of CXC chemokine receptor 2 (CXCR2) inflammatory marker [1] | upregulation of NG2 [2] | optimum effective dose [3] | locomotor activity score, 3 hr after treatment (C56BL/6 J mice [4]) | locomotor activity score, 2 hr after treatment (C56BL/6 J mice [4]) | locomotor activity score, 1 hr after treatment (C56BL/6 J mice [4]) | down regulation of AMIGO3 inflammatory marker [5] | improvement in the grip strength (C56BL/6 J mice [6]) | proliferation of Myelin basic protein (MBP) [7] | No. of mice which stayed on rota rod/total no. of animals (C56BL/6 J mice [8]) | No. of mice which stayed on rota rod/total no. of animals (C56BL/6 J mice [8]; listed as Withaferin) | down regulation of C-reactive Protein (CRP) inflammatory marker (C-reactive Protein (CRP)) | upregulation of PDGFRa [9] | down regulation of TRPA1 inflammatory marker [10] | immunohistochemistry findings of cerebellar cortical layer (C56BL/6 J mice [11])
CC1=C(CO)C(=O)O[C@@H]([C@@H](C)[C@H]2CC[C@H]3[C@@H]4C[C@H]5O[C@]56[C@@H](O)C=CC(=O)[C@]6(C)[C@H]4CC[C@]23C)C1 [Withaferin A] | 32% | 30% | 25 mg/kg | 200 ± 9.01 | 210 ± 17.23 | 240 ± 17.22 | 36% | 25% | 64% | 5 out of 10 | 5/10 | 32% | 22% | 43% | few degenerated Purkinje cells with pyknotic cell bodies and inconspicuous dendritic processes
O=C(/C=C/c1ccc(O)cc1)CC(=O)/C=C/c1ccc(O)cc1 [BDMC, Bisdemethoxycurcumin] | 35% | 90% | 12.5 mg/kg | 190 ± 7.35 | 200 ± 10.70 | 220 ± 21.11 | 27% | 37.5% | 122% | 5/10 |  | 35% | 73% | 17% | 
